Like-named read-outs stand apart in the source and are kept apart here. One block for each compound: values may come before it.
Assays:
Format in all cases: biochemical
[1] = biological target: JNK1 (Homo sapiens, UniProt P45983); assay: Inhibition profile at 500 nM: JNK1; settings: 500 nM test compound; Table 2; read-out: Percent inhibition JNK1
Description: (§1) Then enzyme substrate is added as 10 μl of 2.5×FAM-labeled peptide+ATP solution to each well of the 384-well assay plate The reaction is allowed to proceed at 28° C. and quenched with the addition of 25 μl of stop buffer. The release of fluorescent FAM is quantitated as Percent inhibition=(max−conversion)/(max−min)*100.sp; “max” stands for DMSO control; “min” stands for low control. Convert conversion values to inhibition values. Percent inhibition=(max−conversion)/(max−min)*100. “max” stands for DMSO control; “min” stands for low control.

[2] = tested on: CMT; assay: Inhibition profile at 500 nM: CMT; settings: 500 nM test compound; Table 2
Description: as §1

[3] = biological target: JNK2 (Homo sapiens, UniProt P45984); assay: Inhibition profile at 500 nM: JNK2; settings: 500 nM test compound, read-out: Percent inhibition JNK2
Sequence of JNK2 (P45984 whole entry): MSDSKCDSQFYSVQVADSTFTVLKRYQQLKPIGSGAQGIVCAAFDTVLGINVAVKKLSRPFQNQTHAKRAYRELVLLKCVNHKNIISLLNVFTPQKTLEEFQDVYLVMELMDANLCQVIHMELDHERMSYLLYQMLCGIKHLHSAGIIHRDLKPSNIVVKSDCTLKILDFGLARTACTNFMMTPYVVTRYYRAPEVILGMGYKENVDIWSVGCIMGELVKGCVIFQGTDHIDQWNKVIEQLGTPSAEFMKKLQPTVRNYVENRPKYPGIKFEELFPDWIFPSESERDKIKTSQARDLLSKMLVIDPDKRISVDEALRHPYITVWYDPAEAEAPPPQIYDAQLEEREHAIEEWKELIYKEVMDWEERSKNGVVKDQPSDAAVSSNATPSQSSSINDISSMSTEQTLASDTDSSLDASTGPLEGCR
Description: as §1

[4] = biological target: LYNA (Homo sapiens, UniProt P07948); assay: Inhibition profile at 500 nM: LYNA; settings: 500 nM test compound, read-out: Percent inhibition LYNA
Sequence of LYNA (P07948 whole entry): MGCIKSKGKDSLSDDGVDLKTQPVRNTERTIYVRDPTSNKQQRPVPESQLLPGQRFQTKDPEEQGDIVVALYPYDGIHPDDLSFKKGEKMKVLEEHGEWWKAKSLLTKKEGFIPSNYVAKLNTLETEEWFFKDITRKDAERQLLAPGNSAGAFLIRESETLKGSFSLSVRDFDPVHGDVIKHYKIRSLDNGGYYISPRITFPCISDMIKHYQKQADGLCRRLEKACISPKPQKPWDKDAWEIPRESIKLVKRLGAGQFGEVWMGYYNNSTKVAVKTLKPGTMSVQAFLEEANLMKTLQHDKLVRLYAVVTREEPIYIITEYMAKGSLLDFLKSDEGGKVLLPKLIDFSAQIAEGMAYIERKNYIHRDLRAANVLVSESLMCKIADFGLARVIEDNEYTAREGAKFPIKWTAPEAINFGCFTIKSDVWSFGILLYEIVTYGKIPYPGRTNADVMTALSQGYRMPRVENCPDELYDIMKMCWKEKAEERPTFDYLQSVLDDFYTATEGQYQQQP
Description: as §1

[5] = biological target: YES (Homo sapiens, UniProt P07947); assay: Inhibition profile at 500 nM: YES; settings: 500 nM test compound; Table 2; read-out: Percent inhibition YES
Description: as §1

[6] = biological target: FLT3 (Homo sapiens, UniProt P36888); assay: Inhibition profile at 500 nM: FLT3; settings: 500 nM test compound, read-out: Percent inhibition FLT3
Description: as §1

[7] = biological target: SRC (Homo sapiens, UniProt P12931); assay: Inhibition profile at 500 nM: SRC; settings: 500 nM test compound, read-out: Percent inhibition SRC
Sequence of SRC (P12931 whole entry): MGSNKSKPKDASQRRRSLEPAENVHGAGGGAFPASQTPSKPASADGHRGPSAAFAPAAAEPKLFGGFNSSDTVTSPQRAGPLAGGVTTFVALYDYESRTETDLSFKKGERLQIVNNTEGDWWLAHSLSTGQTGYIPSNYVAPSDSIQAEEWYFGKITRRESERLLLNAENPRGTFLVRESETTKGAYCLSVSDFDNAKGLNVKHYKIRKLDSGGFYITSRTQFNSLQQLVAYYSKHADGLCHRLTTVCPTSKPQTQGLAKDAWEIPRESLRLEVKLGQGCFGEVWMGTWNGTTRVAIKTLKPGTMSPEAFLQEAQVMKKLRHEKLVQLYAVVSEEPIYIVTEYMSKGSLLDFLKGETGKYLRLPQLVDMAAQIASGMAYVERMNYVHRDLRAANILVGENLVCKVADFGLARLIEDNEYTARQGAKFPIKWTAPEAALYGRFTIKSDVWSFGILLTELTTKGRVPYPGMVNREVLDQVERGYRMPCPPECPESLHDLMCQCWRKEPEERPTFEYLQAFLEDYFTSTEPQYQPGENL
Description: as §1

[8] = biological target: ARG/Abl2 (Homo sapiens, UniProt P42684); assay: Inhibition profile at 500 nM: ARG/Abl2; settings: 500 nM test compound
Sequence of ARG/Abl2 (P42684 whole entry): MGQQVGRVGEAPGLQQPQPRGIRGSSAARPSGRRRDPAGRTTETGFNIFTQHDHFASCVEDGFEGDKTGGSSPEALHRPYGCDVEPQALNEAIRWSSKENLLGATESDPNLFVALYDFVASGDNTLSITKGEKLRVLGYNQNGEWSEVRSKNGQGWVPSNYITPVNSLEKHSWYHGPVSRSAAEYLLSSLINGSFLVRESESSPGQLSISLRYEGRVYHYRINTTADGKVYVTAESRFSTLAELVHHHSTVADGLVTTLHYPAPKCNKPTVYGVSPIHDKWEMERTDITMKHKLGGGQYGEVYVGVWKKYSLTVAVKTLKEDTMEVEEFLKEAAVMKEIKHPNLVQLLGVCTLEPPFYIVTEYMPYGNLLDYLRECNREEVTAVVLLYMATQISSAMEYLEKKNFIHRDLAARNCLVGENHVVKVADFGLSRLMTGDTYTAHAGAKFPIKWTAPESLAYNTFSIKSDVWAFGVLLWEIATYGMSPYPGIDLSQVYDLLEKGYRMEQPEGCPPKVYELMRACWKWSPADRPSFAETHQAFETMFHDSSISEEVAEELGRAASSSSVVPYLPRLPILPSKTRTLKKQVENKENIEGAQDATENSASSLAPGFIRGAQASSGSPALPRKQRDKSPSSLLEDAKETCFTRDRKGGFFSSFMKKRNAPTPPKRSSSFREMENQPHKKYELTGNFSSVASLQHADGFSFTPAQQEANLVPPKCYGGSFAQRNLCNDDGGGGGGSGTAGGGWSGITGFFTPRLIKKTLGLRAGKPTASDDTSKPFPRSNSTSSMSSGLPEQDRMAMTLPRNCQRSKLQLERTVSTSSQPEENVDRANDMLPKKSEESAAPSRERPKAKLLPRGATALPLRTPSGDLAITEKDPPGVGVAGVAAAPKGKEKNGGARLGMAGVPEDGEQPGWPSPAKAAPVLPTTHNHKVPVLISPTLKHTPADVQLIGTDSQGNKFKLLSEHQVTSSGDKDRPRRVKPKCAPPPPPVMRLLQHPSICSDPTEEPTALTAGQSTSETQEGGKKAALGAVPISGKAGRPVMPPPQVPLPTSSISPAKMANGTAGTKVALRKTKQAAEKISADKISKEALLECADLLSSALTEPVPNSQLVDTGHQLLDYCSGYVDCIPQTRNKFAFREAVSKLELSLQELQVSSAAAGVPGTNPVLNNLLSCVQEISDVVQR
Description: as §1

[9] = biological target: LCK (Homo sapiens, UniProt P06239); assay: Inhibition profile at 500 nM: LCK; settings: 500 nM test compound, read-out: Percent inhibition LCK
Sequence of LCK (P06239 whole entry): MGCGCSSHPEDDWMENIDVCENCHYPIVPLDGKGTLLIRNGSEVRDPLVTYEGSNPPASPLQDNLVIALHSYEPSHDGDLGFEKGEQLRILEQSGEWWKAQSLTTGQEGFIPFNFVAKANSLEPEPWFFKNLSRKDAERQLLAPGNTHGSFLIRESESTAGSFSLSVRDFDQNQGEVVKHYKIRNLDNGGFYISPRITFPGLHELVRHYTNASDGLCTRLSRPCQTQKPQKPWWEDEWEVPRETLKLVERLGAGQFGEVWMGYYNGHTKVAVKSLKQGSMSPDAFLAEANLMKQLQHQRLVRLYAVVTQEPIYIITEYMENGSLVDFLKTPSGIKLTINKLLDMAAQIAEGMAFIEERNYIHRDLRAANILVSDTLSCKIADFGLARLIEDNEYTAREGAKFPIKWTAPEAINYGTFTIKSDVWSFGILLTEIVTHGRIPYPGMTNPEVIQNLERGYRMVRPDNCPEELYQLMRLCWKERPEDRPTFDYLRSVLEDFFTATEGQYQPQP
Description: as §1

[10] = biological target: PDGFRa (Homo sapiens, UniProt P16234); assay: Inhibition profile at 500 nM: PDGFRa; settings: 500 nM test compound, read-out: Percent inhibition PDGFRa
Sequence of PDGFRa (P16234 24-1089): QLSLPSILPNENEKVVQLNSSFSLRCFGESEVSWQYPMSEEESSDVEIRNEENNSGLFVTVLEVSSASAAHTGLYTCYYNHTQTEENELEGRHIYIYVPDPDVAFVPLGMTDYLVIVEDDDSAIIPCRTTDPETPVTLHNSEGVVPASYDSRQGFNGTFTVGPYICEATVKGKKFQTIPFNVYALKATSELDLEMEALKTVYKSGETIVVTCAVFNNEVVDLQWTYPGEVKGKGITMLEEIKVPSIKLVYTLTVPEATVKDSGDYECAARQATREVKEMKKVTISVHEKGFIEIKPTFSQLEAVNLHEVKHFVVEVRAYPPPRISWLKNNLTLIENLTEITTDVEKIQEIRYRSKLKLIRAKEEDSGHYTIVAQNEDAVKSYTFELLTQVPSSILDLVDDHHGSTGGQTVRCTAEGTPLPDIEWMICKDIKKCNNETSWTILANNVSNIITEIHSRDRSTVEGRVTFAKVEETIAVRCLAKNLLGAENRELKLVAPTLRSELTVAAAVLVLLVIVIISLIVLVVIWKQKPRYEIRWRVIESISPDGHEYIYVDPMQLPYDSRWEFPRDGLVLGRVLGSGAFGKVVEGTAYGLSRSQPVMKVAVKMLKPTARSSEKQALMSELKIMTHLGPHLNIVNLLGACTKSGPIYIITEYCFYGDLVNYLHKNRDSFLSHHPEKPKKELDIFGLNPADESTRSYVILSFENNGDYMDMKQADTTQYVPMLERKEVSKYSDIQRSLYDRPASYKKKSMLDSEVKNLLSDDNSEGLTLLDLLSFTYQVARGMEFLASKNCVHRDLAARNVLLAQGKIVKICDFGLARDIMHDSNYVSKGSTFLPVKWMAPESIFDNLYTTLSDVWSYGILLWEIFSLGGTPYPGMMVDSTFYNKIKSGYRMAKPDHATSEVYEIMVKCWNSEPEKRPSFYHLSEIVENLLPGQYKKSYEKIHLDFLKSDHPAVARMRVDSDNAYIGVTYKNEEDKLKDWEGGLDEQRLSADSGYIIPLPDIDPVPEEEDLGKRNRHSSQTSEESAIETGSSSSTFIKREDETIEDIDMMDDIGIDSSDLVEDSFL
Description: as §1

[11] = biological target: FES (Homo sapiens, UniProt P07332); assay: Inhibition profile at 500 nM: FES; settings: 500 nM test compound, read-out: Percent inhibition FES
Description: as §1

[12] = biological target: PDGFRb (Homo sapiens, UniProt P09619); assay: Inhibition profile at 500 nM: PDGFRb; settings: 500 nM test compound, read-out: Percent inhibition PDGFRb
Description: as §1

[13] = biological target: FGR (Homo sapiens, UniProt P09769); assay: Inhibition profile at 500 nM: FGR; settings: 500 nM test compound, read-out: Percent inhibition FGR
Description: as §1

[14] = biological target: FYN (Homo sapiens, UniProt P06241); assay: Inhibition profile at 500 nM: FYN; settings: 500 nM test compound, read-out: Percent inhibition FYN
Sequence of FYN (P06241 whole entry): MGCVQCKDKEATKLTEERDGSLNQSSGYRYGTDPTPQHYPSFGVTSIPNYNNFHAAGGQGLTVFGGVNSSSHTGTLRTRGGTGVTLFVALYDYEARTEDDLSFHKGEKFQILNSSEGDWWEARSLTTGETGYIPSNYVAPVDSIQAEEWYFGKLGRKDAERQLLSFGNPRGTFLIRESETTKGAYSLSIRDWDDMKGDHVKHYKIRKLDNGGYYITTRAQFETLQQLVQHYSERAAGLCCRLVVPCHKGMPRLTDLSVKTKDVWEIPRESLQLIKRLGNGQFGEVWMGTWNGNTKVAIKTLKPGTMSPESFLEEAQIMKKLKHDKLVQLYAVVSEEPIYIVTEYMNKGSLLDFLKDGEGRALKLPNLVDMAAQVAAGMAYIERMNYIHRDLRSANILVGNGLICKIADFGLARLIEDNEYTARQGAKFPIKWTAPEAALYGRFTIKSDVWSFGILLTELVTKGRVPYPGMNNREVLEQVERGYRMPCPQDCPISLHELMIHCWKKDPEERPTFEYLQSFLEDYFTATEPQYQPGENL
Description: as §1

[15] = biological target: ABL (Homo sapiens, UniProt P00519); assay: Inhibition profile at 500 nM: ABL / Abl1; settings: 500 nM test compound; Table 1; read-out: Percent inhibition ABL
Description: as §1

[16] = biological target: KIT (Homo sapiens, UniProt P10721); assay: Inhibition profile at 500 nM: KIT; settings: 500 nM test compound; Table 1; read-out: Percent inhibition KIT
Description: as §1

inhibition at 0.5 µM [1]: 35% | inhibition at 0.5 µM ([3]; Table 2): 30% | inhibition at 0.5 µM ([4]; Table 2): 108% | inhibition at 0.5 µM [5]: 63% | inhibition at 0.5 µM ([6]; Table 2): 61% | inhibition at 0.5 µM ([7]; Table 2): 45% | inhibition at 0.5 µM ([8]; Table 2, read-out: Percent inhibition Abl2): 89% | inhibition at 0.5 µM ([9]; Table 2): 97% | inhibition at 0.5 µM ([10]; Table 2): 99% | inhibition at 0.5 µM ([11]; Table 2): 19% | inhibition at 0.5 µM ([12]; Table 2): 98% | inhibition at 0.5 µM ([13]; Table 2): 81% | inhibition at 0.5 µM ([14]; Table 2): 90%
Compound: Cc1ccc(NC(=O)c2ccc(CN3CCN(C)CC3)cc2)cc1Nc1nccc(-c2cncc(-c3cnn(C)c3)c2)n1 [Compound 8300]
Percent inhibition CMT [2]: 88%

inhibition at 0.5 µM ([3]; Table 1): 1.7% | inhibition at 0.5 µM ([4]; Table 1): 93% | inhibition at 0.5 µM ([6]; Table 1): 51% | inhibition at 0.5 µM ([7]; Table 1): 28% | inhibition at 0.5 µM ([8]; Table 1, read-out: Percent inhibition ARG/Abl2): 87% | inhibition at 0.5 µM ([9]; Table 1): 95% | inhibition at 0.5 µM ([10]; Table 1): 59% | inhibition at 0.5 µM ([11]; Table 1): 28% | inhibition at 0.5 µM [15]: 91% | inhibition at 0.5 µM [16]: 99% | inhibition at 0.5 µM ([12]; Table 1): 101% | inhibition at 0.5 µM ([13]; Table 1): 82% | inhibition at 0.5 µM ([14]; Table 1): 69%
Compound: Cc1ccc(NC(=O)c2ccc(CN3CCN(C)CC3)cc2)cc1Nc1nccc(-c2cncc(-c3ccn[nH]3)c2)n1 [Compound 107]

Reference: patent US12629371B2, “Compositions and methods for inhibiting kinases” (Inhibikase Therapeutics, Inc., priority 2016, dated 2026)
